Results as given in US20240199618A1, “NOVEL N-ACYL-[3-SUBSTITUTED]-[8-SUBSTITUTED]-5,6-DIHYDRO-[1,2,4]TRIAZOLO[4,3-a]PYRAZINES AS SELECTIVE NK-3 RECEPTOR ANTAGONISTS, PHARMACEUTICAL COMPOSITION, METHODS FOR USE IN NK-3 RECEPTOR-MEDIATED DISORDERS” (Ogeda SA, priority 2013, published 2024).

Target: human NK-2 receptor (Homo sapiens (Human), UniProt P21452)
Assay: Selectivity assay: [125I]-Neurokinin A binding, human NK-2 receptor
Details: 0.1 nM [125I]-Neurokinin A, CHO membranes; read-out: hNK-2 (Ki)
Experimental: The affinity of compounds of the invention for the NK-2 receptor was evaluated in CHO recombinant cells which express the human NK-2 receptor. Membrane suspensions were prepared from these cells. […] Binding assays were performed in a 25 mM HEPES/1 mM CaCl2)/5 mM MgCl2/0.5% BSA/10 μg/ml saponin, at pH 7.4. […] The radioactivity retained on the filters was measured by using the TopCount-NXT reader (Packard).

human NK-2 receptor, sequence (P21452 whole entry): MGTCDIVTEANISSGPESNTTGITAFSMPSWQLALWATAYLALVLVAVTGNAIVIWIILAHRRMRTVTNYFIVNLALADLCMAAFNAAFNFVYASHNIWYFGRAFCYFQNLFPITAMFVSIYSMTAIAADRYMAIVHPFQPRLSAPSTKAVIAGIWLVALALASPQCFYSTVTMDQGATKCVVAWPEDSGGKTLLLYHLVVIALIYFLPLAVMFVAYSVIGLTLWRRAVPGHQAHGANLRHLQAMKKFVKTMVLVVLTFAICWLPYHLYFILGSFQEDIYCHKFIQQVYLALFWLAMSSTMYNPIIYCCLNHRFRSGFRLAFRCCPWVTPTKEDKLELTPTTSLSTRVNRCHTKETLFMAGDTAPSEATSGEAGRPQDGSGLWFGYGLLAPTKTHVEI

Ki: > 30 µM
Compound: Cc1nsc(-c2nnc3n2CCN(C(=O)c2ccc(F)cc2)[C@@H]3C)n1 [Compound 5, (R)-(4-fluorophenyl)(8-methyl-3-(3-methyl-1,2,4-thiadiazol-5-yl)-5,6-dihydro-[1,2,4]triazolo[4,3-a]pyrazin-7(8H)-yl)methanone]
